Measurements published in US9505798B2, “Steroid compounds as RORyt modulators and uses thereof” (New York University, priority 2010, dated 2016).

Tests used:
human memory Th17 cells = conditions: 40 μM, 6 days
Procedure: Mononuclear cells were collected from draining lymph nodes of wild-type or IL-23RGFP knock-in heterozygous mice 7 days after MOG(35-55)/CFA injection.
Blood samples were obtained from the New York Blood Center. Mononuclear cells were prepared from buffy coats from healthy adult donors or from cord blood, using FicollPAQUE gradients. CD4^+ T cells were magnetically selected (autoMACS, Miltenyi). Adult memory CD4^+ T cell subsets were further purified as CD3^+CD4^+CD25^− CD45RO^+CCR6^+CD161^+ by cell sorting on a FACSAria (BD). Naive CD4^+ T cells were isolated from cord blood as CD3^+CD4^+CD45RA^+HLA-DR^−CD25^−DAPI^−. Memory cells were activated with anti-CD3/CD28 coated beads (1 bead/cell) in T cell media (see above) supplemented with 100 U/mL IL-2 (Peprotech), 10 ng/mL IL-1b and 10 ng/mL IL-23 (eBioscience). Naive cells were activated with anti-CD3/CD28 beads and cultured with the same cytokines, and TGF-b (0, 0.1, 1, or, 10 ng/mL) (Peprotech), in XVIVO-20 (Lonza) media. […] Naive CD4^+ T cells, cultured in XVIVO-20 media supplemented 100 U/mL IL-2 (Peprotech), were transduced with RORad-IRES-GFP or RORγt-IRES-GFP on day 1 and analyzed on day 6. […]
Blood samples were obtained from the New York Blood Center. […] Naive CD4+ T cells, cultured in XVIVO-20 media supplemented with 100 U/mL IL-2 (Peprotech), were transduced with RORαd-IRES-GFP or RORγt-IRES-GFP on day 1 and analyzed on day 6. […]

RORα = biological target: T1, RORα (Mus musculus, UniProt P51448); experiment: S2 cell RORα luciferase reporter; type: cell-based; conditions: 10 μM, FIG. 1c
T1 construct: mouse RORα (amino acids 142 to end); expressed in transfected cells
T1 sequence (P51448 142-523 limits assumed): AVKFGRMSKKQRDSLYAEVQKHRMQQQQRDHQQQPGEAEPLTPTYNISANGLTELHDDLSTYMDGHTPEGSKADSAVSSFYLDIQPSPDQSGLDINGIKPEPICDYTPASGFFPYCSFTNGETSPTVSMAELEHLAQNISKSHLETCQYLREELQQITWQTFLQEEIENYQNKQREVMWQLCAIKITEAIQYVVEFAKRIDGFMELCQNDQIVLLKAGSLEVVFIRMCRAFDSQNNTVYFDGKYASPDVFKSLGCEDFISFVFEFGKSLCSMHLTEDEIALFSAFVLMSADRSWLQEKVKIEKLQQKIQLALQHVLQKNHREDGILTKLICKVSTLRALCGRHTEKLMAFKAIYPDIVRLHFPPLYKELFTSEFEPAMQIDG
Source text: The Drosophila S2 cell line was originally purchased from Invitrogen and was maintained in Schneider's medium supplemented with 10% heat-inactivated bovine fetal calf serum and antibiotics (Invitrogen). Gal4 DNA binding domain (G4 DBD) corresponding to amino acids 1 through 147 of Gal4 protein was PCR amplified to make a fusion construct with mouse RORγt (amino acids 79 to the carboxyl terminal end) lacking its DNA binding domain. The resulting chimeric gene was subcloned into the copper inducible pMT/V5-His A vector (Invitrogen). In a similar manner, Gal4 fusion constructs were prepared with mouse RORα (amino acids 142 to end) or Drosophila DHR3 (amino acids 120 to end). Coding sequences for firefly luciferase (Promega) were PCR amplified and subcloned into pUAST vector containing Gal4 binding enhancer sequences. Renilla luciferase construct under the polIII promoter was obtained from Dr. Dasgupta's laboratory (NYU medical center). In order to generate stable cell lines, cells were co-transfected with pMT-G4 DBD-RORγt, pMT-G4 DBD-RORα, pMT-G4 DBD-DHR3, or pMT-G4 DBDVP16 and pHygro plasmids (Invitrogen) and screened for resistant colonies in the presence of hygromycin (0.3 mg/mL). […]

[1] = biological target: T2, RORγt binding to Il17a/f and Il23r loci (Mus musculus, UniProt P51450); experiment: Chromatin immunoprecipitation of RORγt at target loci in Th17-polarized cells; type: cell-based; conditions: 10 and 20 μM, ChIP
T2 construct: endogenous in cells; host or cells: mouse Th17-polarized CD4+ T cells
T2 sequence (P51450 1-495 isoform P51450-2): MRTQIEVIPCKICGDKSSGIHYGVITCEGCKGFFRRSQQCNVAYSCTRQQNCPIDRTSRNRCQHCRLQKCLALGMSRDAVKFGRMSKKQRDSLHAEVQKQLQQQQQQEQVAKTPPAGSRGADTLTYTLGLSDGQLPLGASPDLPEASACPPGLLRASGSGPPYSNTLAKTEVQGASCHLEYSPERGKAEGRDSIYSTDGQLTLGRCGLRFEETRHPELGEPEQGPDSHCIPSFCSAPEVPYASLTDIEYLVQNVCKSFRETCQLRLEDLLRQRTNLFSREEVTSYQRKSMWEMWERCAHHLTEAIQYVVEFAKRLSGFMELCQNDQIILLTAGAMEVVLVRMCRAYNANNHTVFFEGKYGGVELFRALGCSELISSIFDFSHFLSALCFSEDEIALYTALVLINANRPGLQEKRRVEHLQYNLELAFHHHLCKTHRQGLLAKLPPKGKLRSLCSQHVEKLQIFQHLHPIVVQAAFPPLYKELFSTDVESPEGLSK

| Structure (SMILES) | IFN-γ-expressing cells (human memory Th17 cells) | reduction of IL-17a-expressing cells (human memory Th17 cells) | effect on transcriptional activity of RORα (RORα) | RORγt binding to sites in Il17a/f and Il23r [1] |
| --- | --- | --- | --- | --- |
| CC1O[C@@H](OC2C(C)O[C@H](OC3C(C)O[C@@H](O[C@H]4CC[C@@]5(C)[C@H](CC[C@@H]6[C@@H]5C[C@@H](O)[C@]5(C)[C@@H](C(CO)CCO)CC[C@]65O)C4)C[C@H]3O)C[C@H]2O)C[C@@H](O)C1O (stereo partly shown) [Compound 13, 20,22-Dihydrodigoxin-21,23-diol] | little effect | 40-50% |  |  |
| C[C@H]1O[C@@H](O[C@H]2[C@@H](O)C[C@H](O[C@H]3[C@@H](O)C[C@H](O[C@H]4CC[C@@]5(C)[C@H](CC[C@@H]6[C@@H]5C[C@@H](O)[C@]5(C)[C@@H](C7=CC(=O)OC7)CC[C@]65O)C4)O[C@@H]3C)O[C@@H]2C)C[C@H](O)[C@@H]1O [Digoxin] |  |  | no effect | substantially reduced |
